Measured values: ChEMBL document CHEMBL4033678, “A fragment-based approach leading to the discovery of a novel binding site and the selective CK2 inhibitor CAM4066” (Bioorg Med Chem, 2017)
Active and inactive are the calls of the source. No cut-off for these calls is given here.

These compounds were tested against Casein kinase II subunit alpha (Homo sapiens) (UniProt P68400).
Chain of Casein kinase II subunit alpha (Homo sapiens) (P68400 whole entry, looked up): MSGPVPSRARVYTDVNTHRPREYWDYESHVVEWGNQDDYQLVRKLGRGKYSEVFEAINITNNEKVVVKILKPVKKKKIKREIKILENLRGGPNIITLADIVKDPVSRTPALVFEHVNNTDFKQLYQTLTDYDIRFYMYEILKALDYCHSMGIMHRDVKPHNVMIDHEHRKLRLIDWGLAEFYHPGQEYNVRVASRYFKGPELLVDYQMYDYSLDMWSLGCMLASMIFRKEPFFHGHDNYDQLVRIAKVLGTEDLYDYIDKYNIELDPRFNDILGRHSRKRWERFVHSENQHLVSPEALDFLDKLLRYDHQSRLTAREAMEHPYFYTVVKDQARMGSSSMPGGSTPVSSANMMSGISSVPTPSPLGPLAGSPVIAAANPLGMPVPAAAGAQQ

ΔTm	deltaTm	Compound
3 °C		O=C(O)c1ccc2cc[nH]c2c1
0 °C		Nc1cccc(C(=O)O)c1
	inactive	NC(=O)c1ccc(O)cc1
0.5 °C		Cc1cc(C(=O)O)ccc1N
3.8 °C		NNc1ccc(C(=O)O)cc1
3.1 °C		O=C(O)CCc1ccc(O)cc1
2.4 °C		O=C(O)c1ccc(O)c(O)c1
	inactive	O=C(O)c1ccc2ccccc2n1

The next lines start with the compound.

Compound	ΔTm	deltaTm
O=c1cc(O)c2ccccc2o1	3.8 °C	
O=C(O)c1cc(=O)c2ccccc2o1		inactive
COc1cc(CC(=O)O)ccc1O		inactive
OC1CCC(N2CCNCC2)CC1 (stereo not drawn)	0.8 °C	
O=C(O)c1cccc(C(=O)O)n1	-0.5 °C	
Nc1cc(Br)cnc1N		inactive
O=C(O)c1ccc[nH]c1=O	-1.8 °C	
O=C(O)c1cc2cc(F)ccc2[nH]1	4.1 °C	
Cc1ccc(O)c(C(=O)O)c1	4.1 °C	
O=C(O)Cc1ccc(Cl)c(Cl)c1	0.7 °C	
O=C(O)C(=O)Cc1ccccc1	-0.6 °C	
CCCCOC(=O)N1CCC(N)CC1	0.3 °C	
O=C(O)c1cc2cc(O)ccc2[nH]1		inactive
O=C(O)c1ccc(O)cc1O	3.2 °C	
O=C(O)Cc1cc(=O)oc2ccccc12		inactive
